Measured values: paper PMC9476706, “Integrating pharmacokinetics and network analysis to investigate the mechanism of Moutan Cortex in blood-heat and blood stasis syndrome” (Chinese Medicine, 2022)

Tests used:
[1] = Pharmacokinetic study of nine absorbed components in rat serum after oral RMC extract (UHPLC-DAD); details: for time after which the compound was not detected: BHS-RMC rats; for AUC / Cmax / MRT / half-life / Tmax: male, Sprague-Dawley, rat, serum, po, 10 mL/kg, oral RMC extract 10 mL/kg (equal to 6 g/mL of RMC) once a day for 7 days, n = 6;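 on all read-outs here: BHS model made by subcutaneous yeast suspension then two adrenaline injections with ice-water immersion, normal rats given saline instead, serum analytes quantified by UHPLC-DAD at 254 nm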
Procedure: Twenty-four male Sprague–Dawley rats (weighing 300 ± 20 g) were purchased from Animal Experiment Center, Guangdong Academy of Medical Sciences (Certificate no. SCXK2013-0002). The rats were kept in an environmentally controlled breeding room at a temperature of 22 ± 2 °C and a relative humidity of 55 ± 10% for 1 week before starting the experiments. They were fed with standard laboratory food and water. Both the animal’s care and the study protocol were conducted according to the National Institutes of Health Guide for the Care and Use of Laboratory Animals, and followed the guidelines of the Ethics Committee of Guangdong Pharmaceutical University.
The rats were randomly divided into following four groups: normal groups (Normal groups), BHS model groups (BHS groups), normal group administrated with RMC extraction (N-RMC group), BHS group administrated with RMC extraction (BHS-RMC group), respectively. N-RMC group and BHS-RMC group rats were respectively orally administrated with RMC extraction (equal to 6 g/mL of RMC) for continuous 7 days at a dose of 10 mL/kg, once a day, 1 hour after the sixth day of administration. The rats in BHS groups and BHS-RMC group were subcutaneously injected with 10% aqueous suspension of yeast (10 mL/kg) and then subcutaneously injected with 0.1 mg/mL adrenaline hydrochloride solution twice (at a dose of 0.8 mL/kg, 4 h apart) while body temperature remained relatively steady high. Those rats were soaked in ice-water for 5 min keeping their heads outside surface between two subcutaneous injections of adrenaline hydrochloride solution [39, 40]. At the same time, the normal groups and N-RMC group rats were injected with the same dose of saline (10 mL/kg) subcutaneously. All rats were fasted for 12 h but free for water before taking the blood. On the seventh day, 0.3 mL blood samples were collected from fossa orbitalis vein at the time point of 0.083, 0.25, 0.5, 0.75, 1, 2, 3, 4, 6, 8, 10, 12 and 24 h after oral administration. All blood samples were immediately centrifuged at 13,680 (× g) for 10 min at 4 °C and the serum samples were obtained and stored at −80 °C until analysis.
Firstly, 100 μL serum was spiked with 10 μL IS working solution to mix evenly, then 1 mL methanol was added to protein precipitation, and centrifuged at 1520 (× g) for 10 min at 4 °C. Secondly, the supernatant was collected with a clean tube carefully and filtered through 0.22 μm microporous filter head. Thirdly, the filtrate was evaporated to dryness under a stream of nitrogen at 40 °C. Finally, the residue was dissolved in 100 μL methanol and 10 μL of aliquot was injected into UHPLC-DAD system for analysis.
The chromatography experiment was carried out using UPLC system (Thermo Fisher Scientific, USA). Chromatographic conditions were according to the paper published by our research group [37]. Column: Acquity UPLC® BEH Shield RP18 Column (2.1 mm × 100 mm, 1.7 μm, Waters, USA). The column temperature was maintained at 30 °C. Mobile phase: Acetonitrile (A) and 0.1% (v/v) formic acid in water (B). The gradient conditions: 0–10 min, 5–15% A; 10–20 min, 15–35% A; 20–30 min, 35–95% A; 30–32 min, 95% A. The samples were kept at 4 °C in the auto-sampler. Flow rate and sample size, 0.2 mL/min and 2 μL; column temperature and detection wavelength, 30 °C and 254 nm.
The concentrations of nine components of all samples were processed by PKSolver pharmacokinetics software. Statistical comparisons among groups were performed with GraphPad Prism 8 using a One-Way ANOVA analysis. Data expressed as mean ± SD and a p value ≤ 0.05 was considered to be statistically significant.

F7 = F7 expression in TNF-α induced HUVECs (ELISA, RT-qPCR); format: cell-based, Human; details: HUVECs + 25 ng/mL TNF-α, 8 h, versus model group; for F7 protein expression: paeonol 50, paeoniflorin 500, quercetin 1, oxypaeoniflorin 500 μg/mL
Procedure: (§1) After three or four passages, the HUVECs were digested with 0.25% trypsin and seeded in a 6-well plate with a density of 1 × 10^5 cells/mL for ELISA analysis and RT-qPCR. […] Afterwards, take the supernatant and measure according to the ELISA kit, and detect the OD value at the wavelength of 450. […] ChamQTMUniversalSYBR qPCR Master Mix (Vazyme Biotech Co., Ltd, Q711-02) was performed on a Real-time PCR System.

F10 = F10 expression in TNF-α induced HUVECs (ELISA, RT-qPCR); format: cell-based, Human; details: HUVECs + 25 ng/mL TNF-α, 8 h; paeonol 50, paeoniflorin 500, quercetin 1, oxypaeoniflorin 500 μg/mL; versus model group
Procedure: as §1

APTT, PT and TT = test: Coagulation test (APTT, PT, TT) in rabbit plasma; details: for APTT: 10 μL solution, paeoniflorin 250, oxypaeoniflorin 500, quercetin 1, paeonol 50 μg/mL, blank 13.63 ± 0.49, n = 3; for effect on PT compared with blank / effect on TT compared with blank / effect on prolonging APTT compared with blank: in words
Procedure: New Zealand white rabbits, after being fasted but with free access to water for 8 h, were anesthetized by intraperitoneal injection of 10.0% chloral hydrate at 0.3 mL/100 g. The blood collected from the carotid artery was anticoagulated with 3.8% sodium citrate (blood and dosage volume ratio of 9:1), and transferred to a vacuum blood-collection tube, which was then slowly inverted and mixed for 3 to 4 times, and centrifuged at 860 (× g) for 10 min to obtain the supernatant. […] Whereafter, 10 μL of monomer solution was added under the kit instructions to determine APTT, PT and TT using coagulation method.

MAPK10 = MAPK10 mRNA expression in TNF-α induced HUVECs (RT-qPCR); format: cell-based, Human; details: HUVECs + 25 ng/mL TNF-α, 8 h, paeonol 50, paeoniflorin 500, quercetin 1, oxypaeoniflorin 500 μg/mL, versus model group
Procedure: as §1

F2 = F2 expression in TNF-α induced HUVECs (ELISA, RT-qPCR); format: cell-based, Human; details: HUVECs + 25 ng/mL TNF-α, 8 h, versus model group; for F2 protein expression: paeonol 50, paeoniflorin 500, quercetin 1, oxypaeoniflorin 500 μg/mL
Procedure: as §1

AKT = AKT expression in TNF-α induced HUVECs (RT-qPCR); format: cell-based, Human; details: HUVECs + 25 ng/mL TNF-α, 8 h, oxypaeoniflorin 500 μg/mL, versus model group
Procedure: as §1

APTT = tested on: APTT; design: method as in doi:10.5246/jcps.2018.09.062; details: cited from earlier work
[2] = T1/2, BHS-RMC group (BHS model rats)
[3] = T1/2, N-RMC group (normal rats)
[4] = BHS-RMC versus N-RMC rats, oral RMC extract

AUC ([1]; BHS-RMC group (BHS model rats))	AUC ([1]; N-RMC group (normal rats))	Cmax ([1]; BHS-RMC group (BHS model rats))	Cmax ([1]; N-RMC group (normal rats))	MRT ([1]; BHS-RMC group (BHS model rats))	MRT ([1]; N-RMC group (normal rats))	half-life [1, 2]	half-life [1, 3]	Tmax ([1]; BHS-RMC group (BHS model rats))	Tmax ([1]; N-RMC group (normal rats))	Compound	F7 protein expression (F7)	F10 protein expression (F10)	APTT (APTT, PT and TT)	effect on PT compared with blank (APTT, PT and TT)	effect on TT compared with blank (APTT, PT and TT)	effect on prolonging APTT compared with blank (APTT, PT and TT)	MAPK10 mRNA expression (MAPK10)	F2 protein expression (F2)	Cmax increase in BHS-RMC over N-RMC [1, 4]	also measured
45.5 ± 0.83 µg·h/mL	107 ± 1.23 µg·h/mL	10.4 ± 0.23 µg/mL	11.8 ± 0.13 µg/mL	4.63 ± 0.12 h	12.1 ± 0.17 h	4.37 ± 0.15 h	7.84 ± 0.08 h	0.75 h	0.75 h	COc1ccc(C(C)=O)c(O)c1 [Paeonol, paeonol]	significantly declined	significantly declined	17.23 ± 0.35 s	no significant difference	tendency of prolonging	significant effect	significant decrease	significantly declined	–	time after which the compound was not detected ([1]; oral RMC extract): 8 h; shape of plasma concentration-time profile ([1]; oral RMC extract, both normal and model rats): bimodal (double peak) phenomenon; F7 mRNA expression (F7; paeonol 50 μg/mL, RT-qPCR): no effects; F2 mRNA expression (F2; paeonol 50 μg/mL, RT-qPCR): no effects
39.9 ± 1.34 µg·h/mL	22.8 ± 1.34 µg·h/mL	2.16 ± 0.11 µg/mL	6.35 ± 0.53 µg/mL	27.1 ± 1.16 h	7.91 ± 0.56 h	17.9 ± 0.84 h	4.93 ± 0.23 h	1 h	0.75 h	COC(=O)c1ccc(O)cc1 [Methylparaben, methyl paraben]	–	–	–	–	–	–	–	–	–	–
298 ± 7.6 µg·h/mL	1450 ± 62.3 µg·h/mL	84.2 ± 1.99 µg/mL	201.6 ± 1.86 µg/mL	5.06 ± 0.22 h	15.5 ± 0.94 h	3.6 ± 0.31 h	9.75 ± 0.47 h	0.75 h	–	C[C@@]12C[C@@]3(O)O[C@@H](O1)[C@]1(COC(=O)c4ccccc4)[C@H]3C[C@@]12O[C@@H]1O[C@H](CO)[C@@H](O)[C@H](O)[C@H]1O [Paeoniflorin, paeoniflorin]	significantly declined	significantly declined	15.07 ± 0.06 s	no significant difference	tendency of prolonging	significant effect	significant decrease	significantly declined	–	time after which the compound was not detected ([1]; oral RMC extract): 12 h
757 ± 8.72 µg·h/mL	660 ± 29.9 µg·h/mL	134 ± 3.26 µg/mL	116 ± 2.12 µg/mL	14.1 ± 1.07 h	6.9 ± 0.68 h	19 ± 1.78 h	4.73 ± 0.29 h	0.75 h	0.75 h	Cc1oc2c(O)cccc2c(=O)c1O [3,8-Dihydroxy-2-methylchromone, 3,8-dihydroxy-2-methylchromone]	–	–	–	–	–	–	–	–	16%	effect on APTT (APTT): significantly extend

The remaining lines, values behind:

Compound	AUC ([1]; BHS-RMC group (BHS model rats))	AUC ([1]; N-RMC group (normal rats))	Cmax ([1]; BHS-RMC group (BHS model rats))	Cmax ([1]; N-RMC group (normal rats))	MRT ([1]; BHS-RMC group (BHS model rats))	MRT ([1]; N-RMC group (normal rats))	half-life [1, 2]	half-life [1, 3]	Tmax ([1]; BHS-RMC group (BHS model rats))	Tmax ([1]; N-RMC group (normal rats))	F7 protein expression (F7)	F10 protein expression (F10)	APTT (APTT, PT and TT)	effect on PT compared with blank (APTT, PT and TT)	effect on TT compared with blank (APTT, PT and TT)	effect on prolonging APTT compared with blank (APTT, PT and TT)	MAPK10 mRNA expression (MAPK10)	F2 protein expression (F2)	Cmax increase in BHS-RMC over N-RMC [1, 4]	also measured
O=C(O)c1cc(O)c(O)c(O)c1 [Gallic acid, gallic acid]	1070 ± 72.9 µg·h/mL	1020 ± 26.6 µg·h/mL	180 ± 11.1 µg/mL	127 ± 2.9 µg/mL	10 ± 0.96 h	17.3 ± 0.8 h	6.33 ± 0.45 h	10.8 ± 0.87 h	1 h	–	–	–	–	–	–	–	–	–	42%	AUC increase in BHS-RMC over N-RMC [1, 4]: 5%
O=C(O)c1ccccc1 [Benzoic acid, benzoic acid]	2320 ± 71.3 µg·h/mL	1880 ± 217 µg·h/mL	213 ± 5.26 µg/mL	144 ± 4.48 µg/mL	13.3 ± 0.79 h	17 ± 2.76 h	–	–	3 h	4 h	–	–	–	–	–	–	–	–	49%	–
oxypaeoniflorin	–	–	–	–	–	–	–	–	–	–	significantly declined	significantly declined	15.63 ± 0.45 s	no significant difference	tendency of prolonging	significant effect	significant decrease	–	–	expression of AKT (AKT): could decrease
O=c1c(O)c(-c2ccc(O)c(O)c2)oc2cc(O)cc(O)c12 [Quercetin, quercetin]	10000 µg·h/mL	7340 ± 166 µg·h/mL	739.9 ± 4.17 µg/mL	643 ± 19.8 µg/mL	20.4 ± 0.66 h	16.6 ± 0.56 h	15.5 ± 0.54 h	9.97 ± 0.35 h	4 h	4 h	significantly declined	significantly declined	15.2 ± 0.387 s	no significant difference	tendency of prolonging	significant effect	significant decrease	significantly declined	15%	–
O=Cc1ccc(CO)o1 [5-HMF, 5-hydroxymethylfurfural]	741 ± 20.3 µg·h/mL	1564 ± 4.63 µg·h/mL	111 ± 7.25 µg/mL	413.2 ± 2.01 µg/mL	7.47 ± 0.48 h	4.55 ± 0.03 h	7.33 ± 2.1 h	3.2 ± 0.03 h	0.75 h	3 h	–	–	–	–	–	–	–	–	–	–
